Test results: PMC9606187, “Dual HDAC/BRD4 Inhibitors Relieves Neuropathic Pain by Attenuating Inflammatory Response in Microglia After Spared Nerve Injury” (Neurotherapeutics, 2022)

What was measured:
[1] = system: IBA1 (microglia marker); experiment: Immunofluorescence of lumbar spinal cord, IBA1; type: in vivo; settings: lumbar spinal cord of SNI mice, day 14
Description: On postsurgical day 14, animals were perfused transcardially with 4% paraformaldehyde in 0.1 M phosphate buffer (PBS, pH 7.4). After perfusion, lumbar spinal cord was quickly removed and processed as previously described. Four animals per groups were used for this analysis. […] Primary antibody used was IBA1 (1:100; Santa Cruz Biotechnology Cat# sc-32725, RRID:AB_667733). After rinsing in PBS containing 0.01% Triton-X-100, sections were incubated in secondary antibodies labeled with Invitrogen Alexa Fluor 488 (490–525, 1:400; Thermo Fisher Scientific), Invitrogen Alexa Fluor 568 (578–603, 1:400; Thermo Fisher Scientific), Cruz Fluor 594 (592–614, 1:400; Santa Cruz Biotechnology) at room temperature for 2 h. Sections were coverslipped using Vectorshield mounting medium (Vector Laboratories, Burlingame, CA). A Leica DM6000B fluorescence microscope equipped with a DFC350FX digital camera with appropriate excitation and emission filters for each fluorophore was used to acquire representative images. Images were acquired with × 5 to × 40 objectives using a digital camera. The immunofluorescence intensity was calculated by ImageJ (Wayne Rasband, National Institute of Health, USA).

[2] = Intrinsic fluorescence of the compound in spinal cord after i.n. delivery; type: in vivo, mice
Source text: On postsurgical day 14, animals were perfused transcardially with 4% paraformaldehyde in 0.1 M phosphate buffer (PBS, pH 7.4). After perfusion, lumbar spinal cord was quickly removed and processed as previously described. Four animals per groups were used for this analysis. […] Primary antibody used was IBA1 (1:100; Santa Cruz Biotechnology Cat# sc-32725, RRID:AB_667733). […] A Leica DM6000B fluorescence microscope equipped with a DFC350FX digital camera with appropriate excitation and emission filters for each fluorophore was used to acquire representative images. […] The immunofluorescence intensity was calculated by ImageJ (Wayne Rasband, National Institute of Health, USA).
Co-localization of two different labels was measured using EzColocalization plugin (ImageJ). The extent of co-localization was determined by calculating the Mander’s overlap coefficient (MOC) and the Pearson’s correlation coefficient (PCC). […] PCC quantify the correlation between individual fluorophores considering their intensities. PCC is characterized by determined value range: −1, which indicate anticolocalization; +1, which indicates colocalization; 0, which indicates there is no colocalization.

[3] = system: naïve mice; experiment: Hot plate test, acute thermal pain in naïve mice; type: in vivo
Source text: Mice were randomly assigned to each treatment group. To evaluate the pharmacological profile of SUM35 (N-hydroxy-6-(1-methyl-6-phenyl-4H-benzo[f][1,2,4]triazolo[4,3-a][1,4]diazepin-8-yl)hex-5-ynamide), SUM52 ((S)-N-hydroxy-7-(2-(1-methyl-6-phenyl-4H-benzo[f][1,2,4]triazolo[4,3-a][1,4]diazepin-4-yl)acetamido)heptanamide) (Fig. 1F), synthesized in the laboratory of Prof. Maria Novella Romanelli, iBET762 (molibresib; (4S)-6-(4-Chlorophenyl)-N-ethyl-8-methoxy-1-methyl-4H-[1,2,4]triazolo[4,3,a][1,4] benzodiazepine-4-acetamide, and SAHA (vorinostat; suberoylanilide hydroxamic acid) (Sigma-Aldrich, Italy) were administered 15 min before the tests. Drugs were dissolved in 5% DMSO. Drug concentrations were prepared in such a way that the necessary dose could be administered in a volume of 10 µl per mouse by intranasal (i.n.) administration. The experimental protocol to test the effect of treatments on behavioral and in vitro tests included 3 control groups: untreated, vehicle (5% DMSO), and saline. A representative figure of the experimental protocol in naïve (C) and SNI (F) mice has been inserted in Supplementary Fig. 1.
For i.n. administration, mice were slightly anesthetized by 2% isoflurane inhalation and placed in a supine position. A 5 μl aliquot of solution (treatments or vehicle) was slowly dropped alternatively to each nostril with a micropipette tip.
Animals were habituated to the testing environment daily for at least 2 days before baseline testing. To evaluate onset and progression of pain hypersensitivity, neuropathic mice were monitored by measuring nociceptive responses every 30 min for 3 h before surgery or 3, 7, 10, and 14 days after nerve surgery. Experiments were performed on post-surgery day 7 and 14 when the pain hypersensitivity was well established. Each mouse served as its own control, the responses being measured both before and after surgery. All testing was performed with a blind procedure.

[4] = system: IL-1ß; experiment: Western blot of lumbar spinal cord, IL-1ß; type: in vivo, mice; settings: SNI ipsilateral side, day 7 and 14
Description: (§1) The lumbar spinal cord was removed 7 and 14 days after surgery and 90 min after the intranasal administration of SUM52, corresponding to the peack of the effect. Samples (n = 4 for groups) were homogenized in a homogenization buffer and processed as previously described. Protein samples (40 µg of protein/sample) were separated on 10% SDS-PAGE and transferred onto nitrocellulose membranes (120 min at 100 V) using standard procedures. Membranes were blocked in PBST (PBS containing 0.1% Tween) containing 5% nonfat dry milk for 120 min. […] Blots were then extensively washed and developed using enhanced chemiluminescence detection system (Pierce, Milan, Italy) and signal intensity (pixels/mm^2) quantified (ImageJ, NIH). […] For each sample, the signal intensity was normalized to that of total protein stained by Ponceau S and the acquired images were quantified using Image Lab software. […]

[5] = system: p65 subunit of NF-kB (phosphorylated); experiment: Western blot of lumbar spinal cord, p-NF-kB p65; type: in vivo, mice; settings: SNI ipsilateral side, day 7 and 14
Description: as §1

[6] = system: iNOS (NOS2); experiment: Western blot of lumbar spinal cord, iNOS; type: in vivo, mice; settings: SNI ipsilateral side, day 7 and 14
Description: as §1

Q: What does the source list for `Cc1nnc2n1-c1ccccc1C(c1ccccc1)=N[C@H]2CC(=O)NCCCCCCC(=O)NO` [SUM52, (S)-N-hydroxy-7-(2-(1-methyl-6-phenyl-4H-benzo[f][1,2,4]triazolo[4,3-a][1,4]diazepin-4-yl)acetamido)heptanamide]?
A: IBA1 immunostaining [1]: significantly reduced; distribution to spinal cord (intrinsic fluorescence) ([2]; after i.n. delivery, vs vehicle-treated mice): able to reach the spinal cord and diffuse into the tissue; intrinsic fluorescence in microglial cells ([2]; spinal cord sections of SNI mice, IBA1 co-staining): detected in IBA1 positive microglial cells; thermal antinociceptive effect (hot plate) ([3]; 5 µM i.n., 90 min after administration): ineffective; thermal antinociceptive effect (hot plate) ([3]; 50 µM i.n., 90 min after administration): trend toward an increase in the pain threshold; time at which the antinociceptive effect disappeared (hot plate) ([3]; 100 µM i.n.): 120 min; time of peak of antinociceptive activity (hot plate) ([3]; 100 µM i.n.): 90 min; thermal antinociceptive effect (hot plate) ([3]; 100 µM i.n., normalized to control, compared to SUM35 100 µM): significant analgesic effect; thermal antinociceptive effect (hot plate), whole dose range ([3]; 5 to 500 µM i.n.): showed thermal antinociceptive effects; thermal antinociceptive effect (hot plate) ([3]; doses higher than 100 µM (up to 500 µM) i.n.): progressive reduction of efficacy; IL-1ß expression [4]: drastically reduced; phosphorylation of the p65 subunit of NF-kB [5]: robustly reduced by SUM52 up to baseline values; NOS2 (iNOS) expression [6]: reduced NOS2 overactivation
